This is an account of results in US9771370B2, “Compounds for the inhibition of indoleamine-2,3-dioxygenase” (Merck Patent GmbH, priority 2014, dated 2017).

Structures are written as SMILES.

Chain of Recombinant human IDO (P14902 whole entry): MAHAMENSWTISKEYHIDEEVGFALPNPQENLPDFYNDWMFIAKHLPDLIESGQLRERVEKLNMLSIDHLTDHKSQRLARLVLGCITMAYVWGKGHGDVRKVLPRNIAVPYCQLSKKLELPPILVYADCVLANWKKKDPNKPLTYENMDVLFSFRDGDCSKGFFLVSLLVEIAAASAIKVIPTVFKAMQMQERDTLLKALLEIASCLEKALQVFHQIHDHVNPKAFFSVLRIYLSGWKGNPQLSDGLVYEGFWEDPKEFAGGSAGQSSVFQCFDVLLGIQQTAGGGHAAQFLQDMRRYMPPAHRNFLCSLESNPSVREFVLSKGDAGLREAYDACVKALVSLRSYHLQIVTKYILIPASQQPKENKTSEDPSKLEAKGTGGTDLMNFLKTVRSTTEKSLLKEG

This test has as its target Recombinant human IDO (Homo sapiens, UniProt P14902). Description: Bridge-IT tryptophan fluorescence assay of human IDO-1 inhibition. The format is biochemical. Particulars: recombinant human IDO 7.5 nM, L-tryptophan. The gist of the method: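 One variant ran L-Trp at 100 μM for 90 min at 37 °C. The other pre-incubated compound for 30 min at 25 °C, then ran 50 μM L-Trp for 60 min at 25 °C.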
One may read the IC50 as the concentration needed to halve the response being measured. Consider `Fc1cccc2c1C(CCC1(F)CCOCC1)n1cncc1-2` (single isomer, unassigned) [Compound 95a, 6-fluoro-5-[2-(4-fluorooxan-4-yl)ethyl]-5H-imidazo[4,3-a]isoindole], for which the IC50 is greater than 1 µM.

Turning to `Fc1cccc2c1C(CCC1(F)CCOCC1)n1cncc1-2` (single isomer, unassigned) [Compound 95b, 6-fluoro-5-[2-(4-fluorooxan-4-yl)ethyl]-5H-imidazo[4,3-a]isoindole], the IC50 was 0.1 to 1 µM.

On to `FC1(CCC2c3c(Cl)cccc3-c3cncn32)CCOCC1` (single isomer, unassigned) [Compound 96a, 6-chloro-5-[2-(4-fluorooxan-4-yl)ethyl]-5H-imidazo[4,3-a]isoindole], for which the IC50 is greater than 1 µM.

For the compound `FC1(CCC2c3c(Cl)cccc3-c3cncn32)CCOCC1` (single isomer, unassigned) [Compound 96b, 6-chloro-5-[2-(4-fluorooxan-4-yl)ethyl]-5H-imidazo[4,3-a]isoindole], the IC50 lay within 0.1 to 1 µM.

On to `FC(CC1c2ncccc2-c2cncn21)C1CCCCC1` (single isomer, unassigned) [Compound 97a, 7-[2-cyclohexyl-2-fluoroethyl]-4,6,9-triazatricyclo[6.4.0.0^[2,6]]dodeca-1(8),2,4,9,11-pentaene], for which the IC50 was greater than 1 µM.

`FC(CC1c2ncccc2-c2cncn21)C1CCCCC1` (single isomer, unassigned) [Compound 97b, 7-[2-cyclohexyl-2-fluoroethyl]-4,6,9-triazatricyclo[6.4.0.0^[2,6]]dodeca-1(8),2,4,9,11-pentaene]: the IC50 was 0.1 to 1 µM.

On to `FC(CC1c2ncccc2-c2cncn21)C1CCCCC1` (single isomer, unassigned) [Compound 97c, 7-[2-cyclohexyl-2-fluoroethyl]-4,6,9-triazatricyclo[6.4.0.0^[2,6]]dodeca-1(8),2,4,9,11-pentaene], for which the 50% inhibitory concentration (IC50) is 0.1 to 1 µM.

`FC(CC1c2ncccc2-c2cncn21)C1CCCCC1` (single isomer, unassigned) [Compound 97d, 7-[2-cyclohexyl-2-fluoroethyl]-4,6,9-triazatricyclo[6.4.0.0^[2,6]]dodeca-1(8),2,4,9,11-pentaene]: the IC50 was greater than 1 µM.

Take `Fc1cccc2c1C(CC(F)C1CCCCC1)n1cncc1-2` (single isomer, unassigned) [Compound 98a, 5-[2-cyclohexyl-2-fluoroethyl]-6-fluoro-5H-imidazo[4,3-a]isoindole]: the IC50 lay within 0.1 to 1 µM.

As for `Fc1cccc2c1C(CC(F)C1CCCCC1)n1cncc1-2` (single isomer, unassigned) [Compound 98b, 5-[2-cyclohexyl-2-fluoroethyl]-6-fluoro-5H-imidazo[4,3-a]isoindole], the half-maximal inhibitory concentration (IC50) is less than 0.1 µM.

In the case of `NC(=O)C1CCC(F)(CCC2c3c(Cl)cccc3-c3cncn32)CC1` (single isomer, unassigned) [Compound 99a, 4-[2-[6-chloro-5H-imidazo[4,3-a]isoindol-5-yl]ethyl]-4-fluorocyclohexane-1-carboxamide], the IC50 is greater than 1 µM.

Turning to `NC(=O)C1CCC(F)(CCC2c3c(Cl)cccc3-c3cncn32)CC1` (single isomer, unassigned) [Compound 99b, 4-[2-[6-chloro-5H-imidazo[4,3-a]isoindol-5-yl]ethyl]-4-fluorocyclohexane-1-carboxamide], the IC50 was 0.1 to 1 µM.

`NC(=O)C1CCC(F)(CCC2c3c(Cl)cccc3-c3cncn32)CC1` (single isomer, unassigned) [Compound 99c, 4-[2-[6-chloro-5H-imidazo[4,3-a]isoindol-5-yl]ethyl]-4-fluorocyclohexane-1-carboxamide]: the IC50 is less than 0.1 µM.

On to `NC(=O)C1CCC(F)(CCC2c3c(Cl)cccc3-c3cncn32)CC1` (single isomer, unassigned) [Compound 99d, 4-[2-[6-chloro-5H-imidazo[4,3-a]isoindol-5-yl]ethyl]-4-fluorocyclohexane-1-carboxamide], for which the IC50 is greater than 1 µM.

As for `OC(CC1c2nccc(F)c2-c2cncn21)C1CCCCC1` (single isomer, unassigned) [Compound 101a, 1-cyclohexyl-2-[12-fluoro-4,6,9-triazatricyclo[6.4.0.0^[2,6]]dodeca-1(8),2,4,9,11-pentaen-7-yl]ethan-1-ol], the IC50 is greater than 1 µM.

Consider `OC(CC1c2nccc(F)c2-c2cncn21)C1CCCCC1` (single isomer, unassigned) [Compound 101b, 1-cyclohexyl-2-[12-fluoro-4,6,9-triazatricyclo[6.4.0.0^[2,6]]dodeca-1(8),2,4,9,11-pentaen-7-yl]ethan-1-ol], for which the IC50 is greater than 1 µM.

Consider `OC(CC1c2nccc(F)c2-c2cncn21)C1CCCCC1` (single isomer, unassigned) [Compound 101c, 1-cyclohexyl-2-[12-fluoro-4,6,9-triazatricyclo[6.4.0.0^[2,6]]dodeca-1(8),2,4,9,11-pentaen-7-yl]ethan-1-ol], for which the IC50 is greater than 1 µM.

With `OC(CC1c2nccc(F)c2-c2cncn21)C1CCCCC1` (single isomer, unassigned) [Compound 101d, 1-cyclohexyl-2-[12-fluoro-4,6,9-triazatricyclo[6.4.0.0^[2,6]]dodeca-1(8),2,4,9,11-pentaen-7-yl]ethan-1-ol], the 50% inhibitory concentration (IC50) was greater than 1 µM.

As to `Fc1ccnc2c1-c1cncn1C2CCC1(F)CCCCC1` (single isomer, unassigned) [Compound 102a, 12-fluoro-7-[2-(1-fluorocyclohexyl)ethyl]-4,6,9-triazatricyclo[6.4.0.0^[2,6]]dodeca-1(8),2,4,9,11-pentaene], the IC50 was greater than 1 µM.

Consider `Fc1ccnc2c1-c1cncn1C2CCC1(F)CCCCC1` (single isomer, unassigned) [Compound 102b, 12-fluoro-7-[2-(1-fluorocyclohexyl)ethyl]-4,6,9-triazatricyclo[6.4.0.0^[2,6]]dodeca-1(8),2,4,9,11-pentaene], for which the IC50 is greater than 1 µM.

Take `OCC1CCC(F)(CCC2c3c(Cl)cccc3-c3cncn32)CC1` (single isomer, unassigned) [Compound 105a, [4-[2-[6-chloro-5H-imidazo[4,3-a]isoindol-5-yl]ethyl]-4-fluorocyclohexyl]methanol]: the IC50 is greater than 1 µM.

On to `OCC1CCC(F)(CCC2c3c(Cl)cccc3-c3cncn32)CC1` (single isomer, unassigned) [Compound 105c, [4-[2-[6-chloro-5H-imidazo[4,3-a]isoindol-5-yl]ethyl]-4-fluorocyclohexyl]methanol], for which the IC50 was less than 0.1 µM.

In the case of `OC(CC1c2ncccc2-c2cncn21)C1(F)CCCCC1` (single isomer, unassigned) [Compound 109a, 1-(1-fluorocyclohexyl)-2-[4,6,9-triazatricyclo[6.4.0.0^[2,6]]dodeca-1(8),2,4,9,11-pentaen-7-yl]ethan-1-ol], the IC50 was greater than 1 µM.

`OC(CC1c2ncccc2-c2cncn21)C1(F)CCCCC1` (single isomer, unassigned) [Compound 109c, 1-(1-fluorocyclohexyl)-2-[4,6,9-triazatricyclo[6.4.0.0^[2,6]]dodeca-1(8),2,4,9,11-pentaen-7-yl]ethan-1-ol]: the IC50 lay within 0.1 to 1 µM.

For `NC(=O)CC1CCC(F)(CCC2c3ccccc3-c3cncn32)CC1` (single isomer, unassigned) [Compound 112a, 2-[4-fluoro-4-[2-[5H-imidazo[4,3-a]isoindol-5-yl]ethyl]cyclohexyl]acetamide], the IC50 is greater than 1 µM.

In the case of `NC(=O)CC1CCC(F)(CCC2c3ccccc3-c3cncn32)CC1` (single isomer, unassigned) [Compound 112b, 2-[4-fluoro-4-[2-[5H-imidazo[4,3-a]isoindol-5-yl]ethyl]cyclohexyl]acetamide], the IC50 was less than 0.1 µM.

Turning to `NC(=O)CC1CCC(F)(CCC2c3ccccc3-c3cncn32)CC1` (single isomer, unassigned) [Compound 112c, 2-[4-fluoro-4-[2-[5H-imidazo[4,3-a]isoindol-5-yl]ethyl]cyclohexyl]acetamide], the IC50 is greater than 1 µM.

On to `NC(=O)CC1CCC(F)(CCC2c3ccccc3-c3cncn32)CC1` (single isomer, unassigned) [Compound 112d, 2-[4-fluoro-4-[2-[5H-imidazo[4,3-a]isoindol-5-yl]ethyl]cyclohexyl]acetamide], for which the IC50 is less than 0.1 µM.

As to `NC(=O)CC1CCC(F)(CCC2c3c(Cl)cccc3-c3cncn32)CC1` (single isomer, unassigned) [Compound 113a, 2-[4-[2-[6-chloro-5H-imidazo[4,3-a]isoindol-5-yl]ethyl]-4-fluorocyclohexyl]acetamide], the IC50 was less than 0.1 µM.

For `NC(=O)CC1CCC(F)(CCC2c3c(Cl)cccc3-c3cncn32)CC1` (single isomer, unassigned) [Compound 113b, 2-[4-[2-[6-chloro-5H-imidazo[4,3-a]isoindol-5-yl]ethyl]-4-fluorocyclohexyl]acetamide], the IC50 is greater than 1 µM.

Regarding `NC(=O)CC1CCC(F)(CCC2c3c(Cl)cccc3-c3cncn32)CC1` (single isomer, unassigned) [Compound 113c, 2-[4-[2-[6-chloro-5H-imidazo[4,3-a]isoindol-5-yl]ethyl]-4-fluorocyclohexyl]acetamide], the IC50 was greater than 1 µM.

For `NC(=O)CC1CCC(F)(CCC2c3c(Cl)cccc3-c3cncn32)CC1` (single isomer, unassigned) [Compound 113d, 2-[4-[2-[6-chloro-5H-imidazo[4,3-a]isoindol-5-yl]ethyl]-4-fluorocyclohexyl]acetamide], the IC50 is less than 0.1 µM.

For `CN(C)C(=O)C1CCC(F)(CCC2c3c(Cl)cccc3-c3cncn32)CC1` (single isomer, unassigned) [Compound 114a, 4-[2-[6-chloro-5H-imidazo[4,3-a]isoindol-5-yl]ethyl]-4-fluoro-N,N-dimethylcyclohexane-1-carboxamide], the IC50 is less than 0.1 µM.

`CN(C)C(=O)C1CCC(F)(CCC2c3c(Cl)cccc3-c3cncn32)CC1` (single isomer, unassigned) [Compound 114b, 4-[2-[6-chloro-5H-imidazo[4,3-a]isoindol-5-yl]ethyl]-4-fluoro-N,N-dimethylcyclohexane-1-carboxamide]: the IC50 is less than 0.1 µM.
